Assay results from article PMC5218480 (PLoS ONE, 2017).

System: MV-4-11 cells
Assay: Gene expression microarray analysis (Affymetrix PrimeView) and GSEA
Format: cell-based, human
Set-up: RFU PODN (11730768_x_at) / Fold change /veh PODN (11730768_x_at) / RFU LINC00158 (11744669_a_at) / Fold change /veh LINC00158 (11744669_a_at) / RFU DUSP10 (11751237_a_at) / Fold change /veh DUSP10 (11751237_a_at) / RFU ID3 (11757404_x_at) / Fold change /veh ID3 (11757404_x_at) / RFU PLEKHG5 (11737974_s_at) / Fold change /veh PLEKHG5 (11737974_s_at) / RFU LRRC4B (11730491_at) / Fold change /veh LRRC4B (11730491_at) / RFU GIMAP4 (11747438_a_at) / Fold change /veh GIMAP4 (11747438_a_at) / RFU KRT8 (11758183_x_at) / Fold change /veh KRT8 (11758183_x_at) / RFU CNN1 (11734310_a_at) / Fold change /veh CNN1 (11734310_a_at) / RFU VPS37D (11726825_at) / Fold change /veh VPS37D (11726825_at) / RFU C10orf10 (11716522_x_at) / Fold change /veh C10orf10 (11716522_x_at) / RFU KIR2DL2 /// KIR2DL4 /// KIR2DL5A /// KIR2DL5B /// KIR2DS1 /// KIR2DS2 /// KIR2DS3 /// KIR2DS4 /// KIR3DL3 /// KIR3DL3 /// KIR3DS1 (11738374_at) / Fold change /veh KIR2DL2 /// KIR2DL4 /// KIR2DL5A /// KIR2DL5B /// KIR2DS1 /// KIR2DS2 /// KIR2DS3 /// KIR2DS4 /// KIR3DL3 /// KIR3DL3 /// KIR3DS1 (11738374_at) / RFU C1QL1 (11718748_at) / Fold change /veh C1QL1 (11718748_at) / RFU TMPRSS4 (11747572_a_at) / Fold change /veh TMPRSS4 (11747572_a_at) / RFU HAMP (11756126_x_at) / Fold change /veh HAMP (11756126_x_at) / RFU RNFT2 (11725882_a_at) / Fold change /veh RNFT2 (11725882_a_at) / RFU NR4A2 (11747474_a_at) / Fold change /veh NR4A2 (11747474_a_at) / RFU ABCC12 (11746883_a_at) / Fold change /veh ABCC12 (11746883_a_at) / RFU TMEM136 (11760407_x_at) / Fold change /veh TMEM136 (11760407_x_at) / RFU CLDN22 /// WWC2 (11732394_at) / Fold change /veh CLDN22 /// WWC2 (11732394_at) / RFU HLA-DPB1 (11760878_x_at) / Fold change /veh HLA-DPB1 (11760878_x_at) / RFU SPINT1 (11716480_a_at) / Fold change /veh SPINT1 (11716480_a_at) / RFU GAP43 (11754022_s_at) / Fold change /veh GAP43 (11754022_s_at) / RFU A4GNT (11735810_at) / Fold change /veh A4GNT (11735810_at) / RFU PRB3 (11715151_x_at) / Fold change /veh PRB3 (11715151_x_at) / RFU TUBB4B (11761932_at) / Fold change /veh TUBB4B (11761932_at) / RFU CAPN14 (11732068_a_at) / Fold change /veh CAPN14 (11732068_a_at) / RFU TMCC2 (11721928_a_at) / Fold change /veh TMCC2 (11721928_a_at) / RFU IRGQ (11745062_a_at) / Fold change /veh IRGQ (11745062_a_at) / RFU FAM174B (11720279_a_at) / Fold change /veh FAM174B (11720279_a_at) / RFU TMPRSS4 (11748680_a_at) / Fold change /veh TMPRSS4 (11748680_a_at) / RFU FAM212B (11763350_a_at) / Fold change /veh FAM212B (11763350_a_at) / RFU PLEKHG5 (11743358_a_at) / Fold change /veh PLEKHG5 (11743358_a_at) / RFU ZSCAN30 (11745921_a_at) / Fold change /veh ZSCAN30 (11745921_a_at) / RFU CMKLR1 (11741424_a_at) / Fold change /veh CMKLR1 (11741424_a_at) / RFU LOC101060620 /// MAPK8IP1 (11723275_at) / Fold change /veh LOC101060620 /// MAPK8IP1 (11723275_at) / RFU SPTSSB (11747773_x_at) / Fold change /veh SPTSSB (11747773_x_at) / RFU PRSS12 (11739890_at) / Fold change /veh PRSS12 (11739890_at) / RFU BIN1 (11741810_x_at) / Fold change /veh BIN1 (11741810_x_at) / RFU WNT11 (11732464_a_at) / Fold change /veh WNT11 (11732464_a_at) / RFU C10orf10 (11716521_a_at) / Fold change /veh C10orf10 (11716521_a_at) / RFU C5orf56 (11738089_at) / Fold change /veh C5orf56 (11738089_at) / RFU CYB561 (11721691_x_at) / Fold change /veh CYB561 (11721691_x_at) / RFU ANKRD19P (11752326_a_at) / Fold change /veh ANKRD19P (11752326_a_at) / RFU OR2T12 /// OR2T33 /// OR2T8 (11738714_s_at) / Fold change /veh OR2T12 /// OR2T33 /// OR2T8 (11738714_s_at) / RFU VCAN (11748164_a_at) / Fold change /veh VCAN (11748164_a_at) / RFU JSRP1 (11732532_at) / Fold change /veh JSRP1 (11732532_at) / RFU KRTAP10-11 (11738290_x_at) / Fold change /veh KRTAP10-11 (11738290_x_at) / RFU MYO3A (11730013_a_at) / Fold change /veh MYO3A (11730013_a_at) / RFU EBF3 (11725865_a_at) / Fold change /veh EBF3 (11725865_a_at) / RFU CAMK2N1 (11719241_x_at) / Fold change /veh CAMK2N1 (11719241_x_at) / RFU C5orf56 (11738088_a_at) / Fold change /veh C5orf56 (11738088_a_at) / RFU OLFML3 (11715873_a_at) / Fold change /veh OLFML3 (11715873_a_at) / RFU LOC100653217 /// NTM (11731650_a_at) / Fold change /veh LOC100653217 /// NTM (11731650_a_at) / RFU MAPK11 (11762145_a_at) / Fold change /veh MAPK11 (11762145_a_at) / RFU FIZ1 (11724087_x_at) / Fold change /veh FIZ1 (11724087_x_at) / RFU OASL (11726364_x_at) / Fold change /veh OASL (11726364_x_at) / RFU SOX15 (11748057_x_at) / Fold change /veh SOX15 (11748057_x_at) / RFU CD79A (11719716_a_at) / Fold change /veh CD79A (11719716_a_at) / RFU HIST1H1D (11736915_at) / Fold change /veh HIST1H1D (11736915_at) / RFU CASKIN2 (11723855_a_at) / Fold change /veh CASKIN2 (11723855_a_at) / RFU LOC730098 (11760151_x_at) / Fold change /veh LOC730098 (11760151_x_at) / RFU OR4N2 (11742367_at) / Fold change /veh OR4N2 (11742367_at) / RFU PRRT2 (11749266_a_at) / Fold change /veh PRRT2 (11749266_a_at) / RFU SNX32 (11753110_a_at) / Fold change /veh SNX32 (11753110_a_at) / RFU CDHR5 (11726645_a_at) / Fold change /veh CDHR5 (11726645_a_at) / RFU RCAN1 (11760418_a_at) / Fold change /veh RCAN1 (11760418_a_at) / RFU FAM167A (11723789_a_at) / Fold change /veh FAM167A (11723789_a_at) / RFU FAM26E (11764081_at) / Fold change /veh FAM26E (11764081_at) / RFU ISYNA1 (11749810_s_at) / Fold change /veh ISYNA1 (11749810_s_at) / RFU ACY1 (11761880_at) / Fold change /veh ACY1 (11761880_at) / RFU 11764098_at / Fold change /veh 11764098_at / RFU SAMD14 (11745864_x_at) / Fold change /veh SAMD14 (11745864_x_at) / RFU NPB (11741838_a_at) / Fold change /veh NPB (11741838_a_at) / RFU TMPRSS6 (11731388_a_at) / Fold change /veh TMPRSS6 (11731388_a_at) / RFU KRTAP10-2 (11738614_at) / Fold change /veh KRTAP10-2 (11738614_at) / RFU ARHGAP8 /// PRR5-ARHGAP8 (11727945_x_at) / Fold change /veh ARHGAP8 /// PRR5-ARHGAP8 (11727945_x_at) / RFU KRTAP5-7 /// NADSYN1 (11734609_at) / Fold change /veh KRTAP5-7 /// NADSYN1 (11734609_at) / RFU RASL12 (11751679_a_at) / Fold change /veh RASL12 (11751679_a_at) / RFU CDKN2B (11736163_a_at) / Fold change /veh CDKN2B (11736163_a_at) / RFU PRF1 (11729649_at) / Fold change /veh PRF1 (11729649_at) / RFU, ZNF638 /// ZNF638-IT1 / Fold change vs veh, ZNF638 /// ZNF638-IT1 / RFU, PANK3 / Fold change vs veh, PANK3 / RFU, SH3YL1 / Fold change vs veh, SH3YL1 / RFU, ZEB2 / Fold change vs veh, ZEB2 / RFU, NRIP1 / Fold change vs veh, NRIP1 / RFU, PTTG1IP / Fold change vs veh, PTTG1IP / RFU, CAPN2 / Fold change vs veh, CAPN2 / RFU, MED14 / Fold change vs veh, MED14 / RFU, SNORA58 / Fold change vs veh, SNORA58 / RFU, C1orf63 / Fold change vs veh, C1orf63 / RFU, LRRFIP1 / Fold change vs veh, LRRFIP1 / RFU, NDUFAF7 / Fold change vs veh, NDUFAF7 / RFU, SLC12A2 / Fold change vs veh, SLC12A2 / RFU, IBTK / Fold change vs veh, IBTK / RFU, ESF1 / Fold change vs veh, ESF1 / Fold change vs veh, TMEM50B / RFU, TAOK1 / Fold change vs veh, TAOK1 / RFU, ACBD3 / Fold change vs veh, ACBD3 / RFU, TMA16 / Fold change vs veh, TMA16 / RFU, RWDD3 / Fold change vs veh, RWDD3 / RFU, BCAT1 / Fold change vs veh, BCAT1 / RFU, EDEM3 / Fold change vs veh, EDEM3 / RFU, TMEM33 / Fold change vs veh, TMEM33 / RFU, WDR75 / Fold change vs veh, WDR75 / RFU, AHCTF1 / Fold change vs veh, AHCTF1 / RFU, TFRC / Fold change vs veh, TFRC / RFU, ZDHHC17 / Fold change vs veh, ZDHHC17 / RFU, NOM1 / Fold change vs veh, NOM1 / RFU, ARL8B / Fold change vs veh, ARL8B / RFU, ZBTB11 / Fold change vs veh, ZBTB11 / RFU, TAMM41 / Fold change vs veh, TAMM41 / RFU, KIAA1704 /// LOC100996395 / Fold change vs veh, KIAA1704 /// LOC100996395 / RFU, ING1 / Fold change vs veh, ING1 / RFU, TRMT61B / Fold change vs veh, TRMT61B / RFU, FUBP3 / Fold change vs veh, FUBP3 / RFU, TP53 / Fold change vs veh, TP53 / RFU, TNKS2 / Fold change vs veh, TNKS2 / RFU, ZFP14 / Fold change vs veh, ZFP14 / RFU, ACTR2 / Fold change vs veh, ACTR2 / RFU, PPP3R1 / Fold change vs veh, PPP3R1 / RFU, PIK3R1 / Fold change vs veh, PIK3R1 / RFU, HNRNPA1 / Fold change vs veh, HNRNPA1 / RFU, RNF170 / Fold change vs veh, RNF170 / RFU, ZNF28 / Fold change vs veh, ZNF28 / RFU, RNGTT / Fold change vs veh, RNGTT / RFU, OGT / Fold change vs veh, OGT / RFU, BRD1 / Fold change vs veh, BRD1 / RFU, MARS / Fold change vs veh, MARS / RFU, ZNF655 / Fold change vs veh, ZNF655 / RFU, FAHD1 / Fold change vs veh, FAHD1 / RFU, BDP1 / Fold change vs veh, BDP1 / RFU, LRRCC1 / Fold change vs veh, LRRCC1 / RFU, ARID1A / Fold change vs veh, ARID1A / RFU, ZNF146 / Fold change vs veh, ZNF146 / RFU, ZNF330 / Fold change vs veh, ZNF330 / RFU, GPN3 / Fold change vs veh, GPN3 / RFU, C9orf123 / Fold change vs veh, C9orf123 / RFU, N4BP2L2 / Fold change vs veh, N4BP2L2 / RFU, ARFIP1 / Fold change vs veh, ARFIP1 / RFU, FAM179B / Fold change vs veh, FAM179B / RFU, BCL10 / Fold change vs veh, BCL10 / RFU, UHRF1BP1L / Fold change vs veh, UHRF1BP1L / RFU, BET1 / Fold change vs veh, BET1 / RFU, CNOT2 / Fold change vs veh, CNOT2 / RFU, ZNF268 / Fold change vs veh, ZNF268 / Fold change vs veh, ZNF507 / RFU, DGCR2 / Fold change vs veh, DGCR2 / RFU, WDSUB1 / Fold change vs veh, WDSUB1 / Fold change vs veh, HSP90B1 /// MIR3652 / RFU, ADSS / Fold change vs veh, ADSS / RFU, GK / Fold change vs veh, GK / RFU, ZNF148 / Fold change vs veh, ZNF148 / RFU, TAF9 / Fold change vs veh, TAF9 / RFU, SLC1A5 / Fold change vs veh, SLC1A5 / RFU, SLMO2 / Fold change vs veh, SLMO2 / RFU, ABCC4 / Fold change vs veh, ABCC4 / RFU, LOC101060439 /// RAP1B / Fold change vs veh, LOC101060439 /// RAP1B / RFU, RFX7 / Fold change vs veh, RFX7 / RFU, GTPBP10 / Fold change vs veh, GTPBP10 / RFU, CNEP1R1 / Fold change vs veh, CNEP1R1 / RFU, BIVM-ERCC5 /// ERCC5 / Fold change vs veh, BIVM-ERCC5 /// ERCC5 / RFU, ILF3 / Fold change vs veh, ILF3 / RFU 11762660_at / Fold change /veh 11762660_at / RFU VCAN (11757783_s_at) / Fold change /veh VCAN (11757783_s_at) / RFU DDX43 (11728927_at) / Fold change /veh DDX43 (11728927_at) / RFU KRT8 (11758188_x_at) / Fold change /veh KRT8 (11758188_x_at) / RFU NKD1 (11759106_at) / Fold change /veh NKD1 (11759106_at) / RFU SRD5A1 (11742802_a_at) / Fold change /veh SRD5A1 (11742802_a_at) / RFU TPSAB1 /// TPSB2 (11721975_s_at) / Fold change /veh TPSAB1 /// TPSB2 (11721975_s_at) / RFU GSTM3 (11746129_a_at) / Fold change /veh GSTM3 (11746129_a_at) / RFU IL23R (11737362_x_at) / Fold change /veh IL23R (11737362_x_at) / RFU TMEM51 (11727254_a_at) / Fold change /veh TMEM51 (11727254_a_at) / RFU PIWIL2 (11732686_x_at) / Fold change /veh PIWIL2 (11732686_x_at) / RFU ORM1 (11744905_x_at) / Fold change /veh ORM1 (11744905_x_at) / RFU CCDC152 (11743942_at) / Fold change /veh CCDC152 (11743942_at) / RFU ECM1 (11717891_a_at) / Fold change /veh ECM1 (11717891_a_at) / RFU IL23R (11748794_a_at) / Fold change /veh IL23R (11748794_a_at) / RFU TNFAIP8L3 (11732012_x_at) / Fold change /veh TNFAIP8L3 (11732012_x_at) / RFU MBOAT4 (11741988_at) / Fold change /veh MBOAT4 (11741988_at) / RFU 11764193_at / Fold change /veh 11764193_at / RFU TMEM53 (11763286_at) / Fold change /veh TMEM53 (11763286_at) / RFU MAGEB2 (11727129_at) / Fold change /veh MAGEB2 (11727129_at) / RFU TMEM200A (11744735_a_at) / Fold change /veh TMEM200A (11744735_a_at) / RFU CCDC152 (11751479_a_at) / Fold change /veh CCDC152 (11751479_a_at) / RFU FAM211A (11726209_a_at) / Fold change /veh FAM211A (11726209_a_at) / RFU RGS16 (11746705_a_at) / Fold change /veh RGS16 (11746705_a_at) / RFU VCAN (11755009_s_at) / Fold change /veh VCAN (11755009_s_at) / RFU RHOB (11743442_s_at) / Fold change /veh RHOB (11743442_s_at) / RFU RGS16 (11720943_a_at) / Fold change /veh RGS16 (11720943_a_at) / RFU RGS16 (11720944_at) / Fold change /veh RGS16 (11720944_at) / RFU, VPS4B / Fold change vs veh, VPS4B / RFU, CREB1 / Fold change vs veh, CREB1 / RFU, DNAJC13 / Fold change vs veh, DNAJC13 / RFU, GNAQ / Fold change vs veh, GNAQ / RFU, CDK5R1 / Fold change vs veh, CDK5R1 / RFU, ZRANB3 / Fold change vs veh, ZRANB3 / RFU, CUL4A / Fold change vs veh, CUL4A / RFU, CCNY / Fold change vs veh, CCNY / RFU, UFL1 / Fold change vs veh, UFL1 / RFU, COG3 / Fold change vs veh, COG3 / RFU, DIAPH2 / Fold change vs veh, DIAPH2 / RFU, SKA2 / Fold change vs veh, SKA2 / RFU, AFF3 / Fold change vs veh, AFF3 / RFU, LMF1 / Fold change vs veh, LMF1 / RFU, IPO11 / Fold change vs veh, IPO11 / RFU, DFFB / Fold change vs veh, DFFB / RFU, FOXP1 / Fold change vs veh, FOXP1 / RFU, CARD8 / Fold change vs veh, CARD8 / RFU, STRN3 / Fold change vs veh, STRN3 / RFU, ADK / Fold change vs veh, ADK / RFU, RASSF2 / Fold change vs veh, RASSF2 / RFU, WIPF1 / Fold change vs veh, WIPF1 / RFU, LARP1B / Fold change vs veh, LARP1B / RFU, RASA1 / Fold change vs veh, RASA1 / RFU, RB1 / Fold change vs veh, RB1 / RFU, PPFIA1 / Fold change vs veh, PPFIA1 / RFU, MAT2A / Fold change vs veh, MAT2A / RFU, CCT5 / Fold change vs veh, CCT5 / RFU, WDR92 / Fold change vs veh, WDR92 / RFU, CUX1 / Fold change vs veh, CUX1 / RFU, TTC7A / Fold change vs veh, TTC7A / RFU, TMEM135 / Fold change vs veh, TMEM135 / RFU, DEPTOR / Fold change vs veh, DEPTOR / RFU, CPM / Fold change vs veh, CPM / RFU, DNAJB6 / Fold change vs veh, DNAJB6 / RFU, CACNA2D3 / Fold change vs veh, CACNA2D3 / RFU, DTX4 / Fold change vs veh, DTX4 / RFU, TFCP2 / Fold change vs veh, TFCP2 / RFU, GMCL1 /// GMCL1P1 / Fold change vs veh, GMCL1 /// GMCL1P1 / RFU, AEBP2 / Fold change vs veh, AEBP2 / RFU, SNHG1 /// SNORD22 /// SNORD25 /// SNORD26 /// SNORD27 /// SNORD28 /// SNORD29 /// SNORD31 / Fold change vs veh, SNHG1 /// SNORD22 /// SNORD25 /// SNORD26 /// SNORD27 /// SNORD28 /// SNORD29 /// SNORD31 / Fold change (Aza/veh), C12orf56 (ProbeSet 11735607_a_at) / Fold change (ACY-1035/veh), C12orf56 (ProbeSet 11735607_a_at) / Fold change (Aza/veh), FGFR1OP (ProbeSet 11751329_s_at) / Fold change (ACY-1035/veh), FGFR1OP (ProbeSet 11751329_s_at) / Fold change (Aza/veh), VPS36 (ProbeSet 11739960_a_at) / Fold change (ACY-1035/veh), VPS36 (ProbeSet 11739960_a_at) / RFU SYPL1 (11715823_x_at) / Fold change /veh SYPL1 (11715823_x_at) / RFU IGFBP7 (11715501_s_at) / Fold change /veh IGFBP7 (11715501_s_at) / RFU REEP3 (11722064_at) / Fold change /veh REEP3 (11722064_at) / RFU IGLL1 (11728026_x_at) / Fold change /veh IGLL1 (11728026_x_at): dose or concentration left out as unconfirmed
Settings: ProbeSet 11762504_a_at; LIST D

Nc1ncn([C@@H]2O[C@H](CO)[C@@H](O)[C@H]2O)c(=O)n1 [azacitidine]
Fold change vs veh, ZRANB3: 0.82
